# From paper PMC10538207, “Bioactive-Guided Phytochemical Investigations, In Vitro and In Silico Alpha-Glucosidase Inhibition of Two Vietnamese Medicinal Plants Dicranopteris linearis and Psychotria adenophylla” (Pharmaceuticals, 2023)
# Target: T1, alpha-glucosidase (Saccharomyces cerevisiae, UniProt P53341)
# T1 construct: purchased Sigma-Aldrich Co. (Saint Louis, MO, USA)
# Test: biochemical
# Conditions: not given
# Source text: The conditions followed that of our previous report with small modifications.
# T1 sequence (P53341 whole entry): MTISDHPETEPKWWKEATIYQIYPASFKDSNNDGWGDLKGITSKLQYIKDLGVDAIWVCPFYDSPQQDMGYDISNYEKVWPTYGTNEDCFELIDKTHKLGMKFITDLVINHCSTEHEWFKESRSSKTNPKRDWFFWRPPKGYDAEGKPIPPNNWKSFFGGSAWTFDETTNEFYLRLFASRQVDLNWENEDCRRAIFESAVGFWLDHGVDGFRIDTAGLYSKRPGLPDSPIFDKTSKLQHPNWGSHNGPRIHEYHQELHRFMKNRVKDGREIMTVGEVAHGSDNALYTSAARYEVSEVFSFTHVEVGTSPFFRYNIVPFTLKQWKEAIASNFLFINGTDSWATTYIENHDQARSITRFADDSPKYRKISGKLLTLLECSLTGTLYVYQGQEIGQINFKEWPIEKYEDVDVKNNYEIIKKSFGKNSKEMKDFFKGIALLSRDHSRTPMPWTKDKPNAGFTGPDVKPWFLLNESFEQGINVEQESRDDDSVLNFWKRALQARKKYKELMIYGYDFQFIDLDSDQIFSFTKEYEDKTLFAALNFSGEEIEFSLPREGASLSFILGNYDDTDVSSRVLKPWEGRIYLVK
row,SMILES,IC50
1,"O=c1c(-c2ccc(O)cc2)coc2cc(O)ccc12 [DL6, daidzein]",66.9 ± 1.7 µM
2,"O=c1c(O[C@@H]2O[C@H](CO)[C@@H](O)[C@H](O)[C@H]2O)c(-c2ccc(O)c(O)c2)oc2cc(O)cc(O)c12 [DL12, isoquercetin]",99.8 ± 1.2 µM
3,"Cc1cc(O)c2c(c1)C(=O)c1cccc(O)c1C2=O [PA5, chrysophanol]",98.2 ± 2.2 µM

# Same assay, conditions: isolated compounds; read-out: Alpha-glucosidase inhibition IC50 (isolated compounds)
row,SMILES,IC50
1,"CC[C@H](CC[C@@H](C)[C@H]1CC[C@H]2[C@@H]3CC(O)C4=CC(=O)CC[C@]4(C)[C@H]3CC[C@]12C)C(C)C (stereo partly drawn) [DL3, 6-hydroxystigmast-4-en-3-one]",177 ± 3.6 µM
2,"O=c1cc(-c2ccc(O)c(O)c2)oc2cc(O)cc(O)c12 [DL10, luteolin]",67.1 ± 1.2 µM
3,"CC[C@H](CC[C@@H](C)[C@H]1CC[C@H]2[C@@H]3CC=C4C[C@@H](O[C@@H]5O[C@H](CO)[C@@H](O)[C@H](O)[C@H]5O)CC[C@]4(C)[C@H]3CC[C@]12C)C(C)C [DL2, daucosterol]",> 300 µM
4,"COc1ccc(-c2oc3cc(O)c(OC)c(O)c3c(=O)c2OC)cc1OC [DL9, bonanzin]",> 300 µM
5,"CC[C@H](CC[C@@H](C)[C@H]1CC[C@H]2[C@@H]3CC=C4C[C@@H](O)CC[C@]4(C)[C@H]3CC[C@]12C)C(C)C [DL1, β-sitosterol]",> 300 µM
6,"COc1cc(-c2oc3cc(O)c(OC)c(O)c3c(=O)c2OC)ccc1O [DL8, jaceidin]",282 ± 9.2 µM
7,"CC1(C)C[C@H](O)C[C@@](C)(O)/C(O)=C\C1=O [DL5, chakyunglupulin B]",82.2 ± 2.2 µM
8,"COc1cc(/C=C/C(=O)NC(=O)c2ccc(O)c(OC)c2)ccc1O [PA6, tribulusimide D]",76.2 ± 2.9 µM
9,"CC(C)(C)c1ccc(C(=O)c2ccc(C(C)(C)C)cc2C(C)(C)C)c(C(C)(C)C)c1 [DL4, 2,2′,4,4′-tetra-tert-butylbenzophenone]",> 300 µM

# The remaining lines, values ahead:
row,IC50,SMILES
1,> 300 µM,"COc1c(-c2ccc(O)c(O)c2)oc2cc(O)cc(O)c2c1=O [PA1, 3-O-methylquercetin]"
2,250 ± 11.4 µM,"COc1cc(/C=C/C=O)ccc1O [PA4, coniferyl aldehyde]"
3,> 300 µM,"O=Cc1ccc(CO)o1 [PA7, 5-hydroxymethylfurfural]"

# Same assay, conditions: ΔGexp calculated from IC50, T=300 K
row,SMILES,Binding Affinity Exp
1,"CC[C@H](CC[C@@H](C)[C@H]1CC[C@H]2[C@@H]3CC(O)C4=CC(=O)CC[C@]4(C)[C@H]3CC[C@]12C)C(C)C (stereo partly drawn) [DL3, 6-hydroxystigmast-4-en-3-one]",-5.1 kcal/mol
2,"Cc1cc(O)c2c(c1)C(=O)c1cccc(O)c1C2=O [PA5, chrysophanol]",-5.5 kcal/mol
3,"COc1cc(-c2oc3cc(O)c(OC)c(O)c3c(=O)c2OC)ccc1O [DL8, jaceidin]",-4.9 kcal/mol
4,"CC1(C)C[C@H](O)C[C@@](C)(O)/C(O)=C\C1=O [DL5, chakyunglupulin B]",-5.6 kcal/mol
5,"COc1cc(/C=C/C(=O)NC(=O)c2ccc(O)c(OC)c2)ccc1O [PA6, tribulusimide D]",-5.7 kcal/mol

# System: HepG2 cells
# Test: not given
# Conditions: read-out: hepatoprotective activity EC50; cited from earlier work
row,SMILES,EC50
1,"COc1cc(/C=C/C(=O)NC(=O)c2ccc(O)c(OC)c2)ccc1O [PA6, tribulusimide D]",13.5 µM
